The values below come from patent US4559348A, “5- And/or 7-substituted pyrazolo-[4,3-b]-pyridines and their use as antiinflammatory agents” (Beecham Group, p.l.c., priority 1983, dated 1985).

Experiment [1] can be described thus: Croton Oil Test (topical anti-inflammatory activity). The experiment is classed as in vivo, rat (Charles River Wistar). The conditions noted are these: 1 mg/ear, 6 hours. As to the method:
Compounds were tested for anti-inflammatory activity in a topical model based on that described by Fregnan G. B. and Torsello, A. L. (1975), Current Therapeutic Research 17, No. 4, 375-381. In outline the method is as follows:
Rats, Charles River Wistar Strain, female, 10/group. Weight range 200-240 g.
Irritant solution applied consists of 1% croton oil in tetrahydrofuran. 0.05 ml is placed on each ear, compound being included in the irritant solution on one ear. 6 hours later the ears are removed by cutting along the hairline and weighed.
-ve control--no irritant solution.
+ve control--irritant solution on both ears.

The nature of experiment [2]: Quinone Quantal Writhing Test (analgesic activity). The conditions noted are these: 50 mg/kg po. The format is in vivo. The protocol:
L. C. Hendershot and J. Fersaith, J. Pharmac. exp. Therap. 1959, 125, 237-240.
Compounds 1 and 2 had analgesic activity giving 10 and 50 percent inhibition respectively at a dose of 50 mg/kg po.

The nature of experiment [3]: Carrageenin Test (paw volume). The format is in vivo, rat (OLAC Wistar). The conditions noted are these: 3 hours after carrageenin. As to the method: Groups of 8 OLAC Wistar male rats (140-170 g) received the Compounds orally 1 hour before 0.1 ml of 0.5% λ carrageenin injected into the right hind paw. Paw volumes were measured by mercury displacement 3 hours after carrageenin.

The nature of experiment [4]: Mouse Oxazolone Screen (topical anti-inflammatory activity). The experiment is classed as in vivo. The conditions noted are these: 24 hr after challenge; for inhibition in vivo at 200 µg/ear: 200 μg/ear; for inhibition in vivo at 100 µg/ear: 100 μg/ear. The protocol: Compounds were tested for topical anti-inflammatory activity in a mouse oxazolone screen, by a method modified from that of Dietrich and Hess [Int. Arch. Allergy, 38, 246 (1970)].
Mice were sensitised with oxazolone (2 mg in EtOH) on a shaved area of the abdomen, and then challenged with oxazolone (100 μg) with or without the test compound on the left ear 5 days later.

Experiment [5] is described as follows: Rat Cantharidin Screen (topical anti-inflammatory activity). The format is in vivo. The conditions noted are these: 72 hrs. As to the method: Compounds were tested for topical anti-inflammatory activity in a cantharidin rat ear screen, by a method described by A. Boris et al, [J. Invest. Dermatol. 68, 161 (1977)].
Cantharidin (450 μg) in a suitable solvent, such as methanol or tetrahydrofuran applied topically to one rat ear, causes severe inflammation giving approximately double the normal weight at 72 hrs. compared to the other, untreated ear. The test compounds were applied simultaneously with cantharidin in tetrahydrofuran.

For experiment [6] the following is noted: in mice; cited from earlier work.

Each structure is given as a SMILES string.

Usually % Inhibition stands for the share of the control response that was lost under treatment. Read a low % Inhibition as little suppression. For `c1cc2[nH]ncc2nc1N1CCCCC1` [Compound 1, 5-Piperidino-1H-pyrazolo(4,3-b)pyridine], the “% Inhibition” value in experiment [1] was determined as 32.9%; in experiment [3] (88 mg/kg orally) it was 34%. Further, the “percent inhibition (analgesic activity)” value in experiment [2] stood at 10%.

Turning to `Cc1cc(N2CCCCC2)c2[nH]ncc2n1` [Compound 2, 5-Methyl-7-piperidino-1H-pyrazolo(4,3-b)pyridine], the “% Inhibition” value amounted to 34.8% in experiment [1] and 41.7% in experiment [3] (81 mg/kg orally). Also, the “percent inhibition (analgesic activity)” value in experiment [2] is given as 50%.

A word on the inhibition in vivo: it is the change of the read-out against control, counted positive when it falls. Lower therefore signals a weak effect. In experiment [4], `Cc1ccc(Sc2cc(C)nc3cn[nH]c23)cc1` [Compound 3, 5-Methyl-7-(p-tolythio)-1H-pyrazolo(4,3-b)pyridine] came in with an inhibition in vivo at 200 µg/ear of 37%.

In experiment [4], `Cc1cc(Nc2ccccc2)c2[nH]ncc2n1` [Compound 4, 7-Anilino-5-methyl-1H-pyrazolo(4,3-b)pyridine] displayed an inhibition in vivo at 200 µg/ear of 81%. In experiment [5], this compound registered an inhibition in vivo at 1 mg/ear of 42%. The “% Inhibition” value in experiment [1] was determined as 71.7%; in experiment [3] (75 mg/kg orally), 40.2%.

Consider `Cc1cc(Nc2ccccc2)c2nn(C)cc2n1` [Compound 5, 7-Anilino-2,5-dimethyl-2H-pyrazolo(4,3-b)pyridine], for which, in experiment [4], the inhibition in vivo at 200 µg/ear stood at 63%. In addition, in experiment [5], the inhibition in vivo at 2 mg/ear was found to be 44%.

In the case of `CCOc1ccc(Nc2cc(C)nc3cn[nH]c23)cc1` [Compound 7, 7-(4-Ethoxyanilino)-5-methyl-1H-pyrazolo[4,3-b]pyridine], in experiment [4], the inhibition in vivo at 100 µg/ear came out at 56%. In experiment [5], this compound yielded an inhibition in vivo at 2 mg/ear of 25%.

As to `Cc1cc(Nc2ccccc2C)c2[nH]ncc2n1` [Compound 8, 7-(2-Methylanilino)-5-methyl-1H-pyrazolo[4,3-b]pyridine], the inhibition in vivo at 100 µg/ear in experiment [4] was determined as 31%. In experiment [5] (0.9 mg/ear), the inhibition in vivo at 0.9 mg/ear came out at 56%.

Consider `Cc1cc(Sc2ccccc2)c2[nH]ncc2n1` [Compound 9, 5-Methyl-7-phenylthio-1H-pyrazolo[4,3-b]pyridine], for which the inhibition in vivo at 100 µg/ear in experiment [4] is 61%. Besides, in experiment [5], the inhibition in vivo at 1 mg/ear worked out at 40%.

In experiment [4], `CCCCNc1cc(C)nc2cn[nH]c12` [Compound 10, 7-n-Butylamino-5-methyl-1H-pyrazolo[4,3-b]pyridine] showed an inhibition in vivo at 100 µg/ear of 54%. In addition, in experiment [5] (0.5 mg/ear), the inhibition in vivo at 0.5 mg/ear stood at 76%.

With `Cc1cc(NC2CCCCC2)c2[nH]ncc2n1` [Compound 11, 7-Cyclohexylamino-5-methyl-1H-pyrazolo[4,3-b]pyridine], in experiment [5], the inhibition in vivo at 1 mg/ear was 66%.

As for `CCOc1cccc(Nc2cc(C)nc3cn[nH]c23)c1` [Compound 12, 7-(3-Ethoxyanilino)-5-methyl-1H-pyrazolo[4,3-b]pyridine], the inhibition in vivo at 1 mg/ear in experiment [5] came out at 41%.

Compound `Cc1cc(Nc2ccc(Cl)cc2)c2[nH]ncc2n1` [Compound 14, 7-(4-Chloroanilino)-5-methyl-1H-pyrazolo[4,3-b]pyridine] yielded an inhibition in vivo at 2 mg/ear in experiment [5] of 27%.

`COc1ccc(Nc2cc(C)nc3cn[nH]c23)cc1` [Compound 15, 7-(4-Methoxyanilino)-5-methyl-1H-pyrazolo[4,3-b]pyridine] registered an inhibition in vivo at 1 mg/ear in experiment [5] of 41%.

Regarding `Cc1cc(N(C)c2ccccc2)c2[nH]ncc2n1` [Compound 17, 7-(N-Methylanilino)-5-methyl-1H-pyrazolo[4,3-b]pyridine], the inhibition in vivo at 100 µg/ear in experiment [4] was 32%. The inhibition in vivo at 1 mg/ear in experiment [5] is 31%.

For the compound `c1ccc(Nc2ccnc3cn[nH]c23)cc1` [Compound 19, 7-Anilino-1H-pyrazolo[4,3-b]pyridine], the inhibition in vivo at 1 mg/ear in experiment [5] was 50%.

As for `Cc1cc(Nc2ccc(C(C)(C)C)cc2)c2[nH]ncc2n1` [Compound 22, 5-Methyl-7-p-t-butylanilino-1H-pyrazolo[4,3-b]pyridine], the inhibition in vivo at 1 mg/ear in experiment [5] was found to be 68%.

Compound `Cc1cc(Nc2ccc(Cl)c(Cl)c2)c2[nH]ncc2n1` [Compound 24, 7-(3,4-Dichloroanilino)-5-methyl-1H-pyrazolo[4,3-b]pyridine] displayed an inhibition in vivo at 1 mg/ear in experiment [5] of 29%.

Take `CC(=O)N(C(C)=O)c1cc(C)nc2c(C)n[nH]c12` [The compound wherein R is NAc2]: the CNS antidepressant activity entry in experiment [6] is on record as “having CNS antidepressant activity”.
